# What was measured:
# Assay type in all cases: in vivo
# Spodoptera frugiperda = Spodoptera frugiperda spray test (maize leaf discs, caterpillars); details: foliar, 168 h, Aufwandmenge 500g/ha, after 7 days, read-out: Wirkung
# Text: (§1) Zur Herstellung einer zweckmäßigen Wirkstoffzubereitung löst man 1 Gewichtsteil Wirkstoff mit den angegebenen Gewichtsteilen Lösungsmittel und füllt mit Wasser, welches eine Emulgatorkonzentration von 1000 ppm enthält, bis zum Erreichen der gewünschten Konzentration auf. Zur Herstellung weiterer Testkonzentrationen wird mit emulgatorhaltigem Wasser verdünnt.
# Maisblattscheiben (Zea mays) werden mit einer Wirkstoffzubereitung der gewünschten Konzentration gespritzt und nach dem Abtrocknen mit Raupen des Heerwurms (Spodoptera frugiperda) besetzt.
# Nach 7 Tagen wird die Wirkung in % bestimmt. Dabei bedeutet 100 %, dass alle Raupen abgetötet wurden; 0 % bedeutet, dass keine Raupe abgetötet wurde.
# Phaedon cochleariae = Phaedon cochleariae spray test (Chinese cabbage leaf discs, larvae); details: foliar, 168 h, read-out: Wirkung
# Text: as §1
# Chinakohlblattscheiben (Brassica pekinensis) werden mit einer Wirkstoffzubereitung der gewünschten Konzentration gespritzt und nach dem Abtrocknen mit Larven des Meerrettichblattkäfers (Phaedon cochleariae) besetzt.
# Nach 7 Tagen wird die Wirkung in % bestimmt. Dabei bedeutet 100 %, dass alle Käferlarven abgetötet wurden; 0 % bedeutet, dass keine Käferlarven abgetötet wurden.
# Ctenocephalides felis = Ctenocephalides felis oral test (feeding on treated citrated cattle blood); details: 48 h, Aufwandmenge 100ppm, after 2 days, read-out: Wirkung (Abtötung)
# Protocol: Zwecks Herstellung einer zweckmäßigen Wirkstoffzubereitung vermischt man 10 mg Wirkstoff mit 0,5 ml Dimethylsulfoxid. Durch Verdünnen mit citriertem Rinderblut erhält man die gewünschte Konzentration.
# Ca. 20 nüchterne adulte Katzenflöhe (Ctenocephalides felis) werden in eine Kammer eingesetzt, die oben und unten mit Gaze verschlossen ist. Auf die Kammer wird ein Metallzylinder gestellt, dessen Unterseite mit Parafilm verschlossen ist. Der Zylinder enthält die Blut-Wirkstoffzubereitung, die von den Flöhen durch die Parafilmmembran aufgenommen werden kann.
# Nach 2 Tagen wird die Abtötung in % bestimmt. Dabei bedeutet 100 %, dass alle Flöhe abgetötet wurden; 0 % bedeutet, dass keiner der Flöhe abgetötet wurde.
Structure (SMILES),mortality at 500 g/ha (Spodoptera frugiperda),mortality at 500 g/ha (Phaedon cochleariae),mortality at 100 µg/mL (Ctenocephalides felis)
O=C(Cc1ccc(C(F)(F)F)cc1)Nc1cc(-c2ccc(OC(F)(F)F)cc2)cc(NC(=O)C2CC2)n1 [I-002],100%,–,–
CCC(=O)Nc1cc(-c2ccc(OC(F)(F)F)cc2)cc(NC(=O)C2CC2)n1 [I-020],100%,100%,–
CC(C)C(=O)Nc1cc(-c2ccc(C(F)(F)C(F)(F)F)c(F)c2)cc(NC(=O)C2CC2)n1 [I-054],100%,100%,–
N#Cc1ccc(C(=O)Nc2cc(-c3ccc(OC(F)(F)F)cc3)cc(NC(=O)C3CC3)n2)cc1 [I-027],100%,100%,100%
O=C(Nc1cc(-c2ccc(C(F)(F)C(F)(F)F)c(F)c2F)cc(NC(=O)C2CC2)n1)C1CC1 [I-045],100%,100%,–
N#Cc1cccc(CC(=O)Nc2cc(-c3ccc(OC(F)(F)F)cc3)cc(NC(=O)C3CC3)n2)c1 [I-003],100%,–,100%
O=C(Nc1cc(-c2ccc(C(F)(F)C(F)(F)F)c(Cl)c2)cc(NC(=O)C2CC2)n1)C1CC1 [I-046],100%,100%,100%
CC(=O)Nc1cc(-c2ccc(OC(F)(F)F)cc2)cc(NC(=O)C2CC2)n1 [I-022],100%,100%,100%
Cc1cc(-c2cc(NC(=O)C3CC3)nc(NC(=O)C3CC3)c2)ccc1C(F)(F)C(F)(F)F [I-043],100%,100%,100%
O=C(Nc1cc(-c2ccc(OC(F)(F)F)cc2)cc(NC(=O)C2CC2)n1)C1CCCC1 [I-021],100%,–,100%
O=C(Nc1cc(-c2c(F)cc(C(F)(F)C(F)(F)F)cc2F)cc(NC(=O)C2CC2)n1)C1CC1 [I-041],83%,–,–
O=C(Nc1cc(-c2cc(F)c(C(F)(F)C(F)(F)F)cc2F)cc(NC(=O)C2CC2)n1)C1CC1 [I-048],100%,83%,–
O=C(Nc1cc(-c2cc(F)c(C(F)(F)C(F)(F)F)c(F)c2)cc(NC(=O)C2CC2)n1)C1CC1 [I-044],100%,–,–
CC(C)(C#N)C(=O)Nc1cc(-c2ccc(OC(F)(F)F)cc2)cc(NC(=O)C2CC2)n1 [I-009],100%,–,–
Cc1cc(-c2cc(NC(=O)C3CC3)nc(NC(=O)C3CC3)c2)cc(F)c1C(F)(F)C(F)(F)F [I-040],100%,100%,–
CC(=O)Nc1cc(-c2ccc(C(F)(F)C(F)(F)F)c(F)c2)cc(NC(=O)C2CC2)n1 [I-056],100%,100%,–
O=C(Nc1cc(-c2ccc(OC(F)(F)F)cc2)cc(NC(=O)C2CC2)n1)c1ccccc1 [I-026],100%,83%,100%
O=C(Nc1cc(-c2cc(F)c(C(F)(F)C(F)(F)F)c(Cl)c2)cc(NC(=O)C2CC2)n1)C1CC1 [I-053],100%,100%,–
N#CCCC(=O)Nc1cc(-c2ccc(OC(F)(F)F)cc2)cc(NC(=O)C2CC2)n1 [I-025],100%,83%,–
CC1(C(=O)Nc2cc(-c3ccc(OC(F)(F)F)cc3)cc(NC(=O)C3CC3)n2)CCCC1 [I-011],100%,–,–
CC(C)(C(=O)Nc1cc(-c2ccc(OC(F)(F)F)cc2)cc(NC(=O)C2CC2)n1)c1ccccc1 [I-010],–,100%,–

Structure (SMILES),mortality at 500 g/ha (Spodoptera frugiperda),mortality at 500 g/ha (Phaedon cochleariae),mortality at 100 µg/mL (Ctenocephalides felis)
CC(C)C(=O)Nc1cc(NC(=O)C(C)C)cc(-c2ccc(C(F)(F)C(F)(F)F)c(F)c2)c1 [I-051],100%,100%,100%
CCCCC(=O)Nc1cc(-c2ccc(OC(F)(F)F)cc2)cc(NC(=O)C2CC2)n1 [I-019],100%,100%,–
O=C(Nc1cc(-c2ccc(OC(F)(F)F)cc2)cc(NC(=O)C2CC2(C2CC2)C2CC2)n1)C1CC1 (centres unmarked) [I-028],100%,100%,100%
CCC(=O)Nc1cc(-c2ccc(C(F)(F)C(F)(F)F)c(F)c2)cc(NC(=O)C2CC2)n1 [I-055],100%,100%,100%
CC(C)(C(=O)Nc1cc(-c2ccc(OC(F)(F)F)cc2)cc(NC(=O)C2CC2)n1)C(F)(F)F [I-016],100%,100%,–
CC1(C(=O)Nc2cc(-c3ccc(OC(F)(F)F)cc3)cc(NC(=O)C3CC3)n2)CC1 [I-004],100%,100%,100%
O=C(Nc1cc(-c2ccc(OC(F)(F)F)cc2)c(Cl)c(NC(=O)C2CC2)n1)C1CC1 [I-038],83%,–,–
O=C(Nc1cc(-c2c(F)cc(C(F)(F)C(F)(F)F)c(F)c2F)cc(NC(=O)C2CC2)n1)C1CC1 [I-062],100%,100%,–
O=C(Nc1cc(-c2cc(F)c(C(F)(F)C(F)(F)F)c(F)c2F)cc(NC(=O)C2CC2)n1)C1CC1 [I-047],83%,–,–
N#Cc1ccc(CC(=O)Nc2cc(NC(=O)C3CC3)cc(-c3ccc(C(F)(F)C(F)(F)F)c(F)c3)c2)cc1 [I-061],83%,–,–
N#CC1(C(=O)Nc2cc(-c3ccc(C(F)(F)C(F)(F)F)c(F)c3)cc(NC(=O)C3CC3)n2)CC1 [I-057],100%,–,–
O=C(Nc1cc(-c2cc(F)c(C(F)(F)C(F)(F)F)cc2Cl)cc(NC(=O)C2CC2)n1)C1CC1 [I-042],100%,–,–
O=C(Nc1cc(-c2ccc(OC(F)(F)F)cc2)cc(NC(=O)C2(Cl)CC2)n1)C1CC1 [I-013],100%,–,–
O=C(Nc1cc(NC(=O)C2CC2)cc(-c2ccc(C(F)(F)C(F)(F)F)c(F)c2)c1)C1CC1 [I-050],100%,100%,100%
CC(C)C(=O)Nc1cc(-c2ccc(OC(F)(F)F)cc2)cc(NC(=O)C2CC2)n1 [I-018],100%,100%,100%
CC(=O)Nc1cc(-c2ccc(C(F)(F)C(F)(F)F)c(F)c2)cc(NC(C)=O)n1 [I-059],100%,100%,–
CCCC(=O)Nc1cc(-c2ccc(OC(F)(F)F)cc2)cc(NC(=O)C2CC2)n1 [I-023],100%,100%,100%
CCC(=O)Nc1cc(-c2ccc(C(F)(F)C(F)(F)F)c(F)c2)cc(NC(=O)CC)n1 [I-058],100%,100%,–
N#Cc1ccc(CC(=O)Nc2cc(-c3ccc(OC(F)(F)F)cc3)cc(NC(=O)C3CC3)n2)cc1 [I-007],83%,–,100%
N#CC1(C(=O)Nc2cc(-c3ccc(OC(F)(F)F)cc3)cc(NC(=O)C3CC3)n2)CC1 [I-005],100%,83%,100%
CC(C)C(=O)Nc1cc(-c2ccc(C(F)(F)C(F)(F)F)c(F)c2)cc(NC(=O)C(C)C)n1 [I-052],100%,100%,100%

# Reference: patent EP3284739A1, “SUBSTITUTED (HET) ARYL COMPOUNDS AS PESTICIDES” (Bayer CropScience Aktiengesellschaft, priority 2017, dated 2018)
